Legend:
Experiment in all cases: relative viability (nuclei count vs DMSO), 5 days (fraction); higher = more cells survive
HCC-44 = tested on: HCC-44
Procedure, shortened: (§1)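 Nuclei were stained with Hoechst during a one-step fixation (final 0.05% Triton X-100, 1% formaldehyde, 1 ug/ml Hoechst) carried out 5 days after dosing, then counted on 4× images. The cells, lung cancer lines in 1536-well plates, had been dosed by pin tool the day after seeding with one drug alone or a fixed anchor-drug dose plus five library-drug doses (not always all listed) in √10 steps. Relative viability is the nuclei count in treated wells divided by that in vehicle wells, and each value is the median of duplicate plates.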

Calu-6 = tested on: Calu-6
Procedure, shortened: as §1

NCI-H1755 = tested on: NCI-H1755
Procedure, shortened: as §1

NCI-H1395 = tested on: NCI-H1395
Procedure, shortened: as §1

EBC-1 = tested on: EBC-1
Procedure, shortened: as §1

NCI-H1299 = tested on: NCI-H1299
Procedure, shortened: as §1

UMC-11 = tested on: UMC-11
Procedure, shortened: as §1

A549 = tested on: A549
Procedure, shortened: as §1

IA-LM = tested on: IA-LM
Procedure, shortened: as §1

HCC-15 = tested on: HCC-15
Procedure, shortened: as §1

NCI-H1703 = tested on: NCI-H1703
Procedure, shortened: as §1

EKVX = tested on: EKVX
Procedure, shortened: as §1

Question: Which results are given for `COc1nc(C)cnc1NS(=O)(=O)c1cccnc1-c1ccc(-c2nnco2)cc1` [Zibotentan] + CC1(C)CCC(c2ccc(Cl)cc2)=C(CN2CCN(c3ccc(C(=O)NS(=O)(=O)c4ccc(N[C@H](CCN5CCOCC5)CSc5ccccc5)c(S(=O)(=O)C(F)(F)F)c4)cc3)CC2)C1 [Navitoclax] (partner 0.5 µM)?
Answer: relative viability (HCC-44; first compound 0.08 µM): 1.24; relative viability (HCC-44; first compound 0.253 µM): 0.887; relative viability (HCC-44; first compound 0.8 µM): 0.99; relative viability (HCC-44; first compound 2.53 µM): 1.04; relative viability (Calu-6; first compound 0.08 µM): 0.832; relative viability (Calu-6; first compound 0.253 µM): 0.79; relative viability (Calu-6; first compound 0.8 µM): 0.888; relative viability (Calu-6; first compound 2.53 µM): 0.894; relative viability (NCI-H1755; first compound 0.08 µM): 1.01; relative viability (NCI-H1755; first compound 0.253 µM): 0.99; relative viability (NCI-H1755; first compound 0.8 µM): 1; relative viability (NCI-H1755; first compound 2.53 µM): 1.02; relative viability (NCI-H1395; first compound 0.08 µM): 1.54; relative viability (NCI-H1395; first compound 0.253 µM): 1.03; relative viability (NCI-H1395; first compound 0.8 µM): 1.07; relative viability (NCI-H1395; first compound 2.53 µM): 1.12; relative viability (EBC-1; first compound 0.08 µM): 0.487; relative viability (EBC-1; first compound 0.253 µM): 0.499; relative viability (EBC-1; first compound 0.8 µM): 0.477; relative viability (EBC-1; first compound 2.53 µM): 0.38; relative viability (NCI-H1299; first compound 0.08 µM): 1.05; relative viability (NCI-H1299; first compound 0.253 µM): 0.998; relative viability (NCI-H1299; first compound 0.8 µM): 1.05; relative viability (NCI-H1299; first compound 2.53 µM): 1.05; relative viability (UMC-11; first compound 0.08 µM): 0.303; relative viability (UMC-11; first compound 0.253 µM): 0.32; relative viability (UMC-11; first compound 0.8 µM): 0.293; relative viability (UMC-11; first compound 2.53 µM): 0.302; relative viability (A549; first compound 0.08 µM): 1.45; relative viability (A549; first compound 0.253 µM): 1.18; relative viability (A549; first compound 0.8 µM): 1.26; relative viability (A549; first compound 2.53 µM): 1.2; relative viability (IA-LM; first compound 0.08 µM): 0.764; relative viability (IA-LM; first compound 0.253 µM): 0.688; relative viability (IA-LM; first compound 0.8 µM): 0.682; relative viability (IA-LM; first compound 2.53 µM): 0.699; relative viability (HCC-15; first compound 0.08 µM): 0.648; relative viability (HCC-15; first compound 0.253 µM): 0.656; relative viability (HCC-15; first compound 0.8 µM): 0.765; relative viability (HCC-15; first compound 2.53 µM): 0.698; relative viability (NCI-H1703; first compound 0.08 µM): 1.15; relative viability (NCI-H1703; first compound 0.253 µM): 1.08; relative viability (NCI-H1703; first compound 0.8 µM): 1.25; relative viability (NCI-H1703; first compound 2.53 µM): 1.03; relative viability (EKVX; first compound 0.08 µM): 0.938; relative viability (EKVX; first compound 0.253 µM): 1; relative viability (EKVX; first compound 0.8 µM): 0.943; relative viability (EKVX; first compound 2.53 µM): 1.06

Question: For `COc1nc(C)cnc1NS(=O)(=O)c1cccnc1-c1ccc(-c2nnco2)cc1` [Zibotentan] + CS(=O)(=O)CCNCc1ccc(-c2ccc3ncnc(Nc4ccc(OCc5cccc(F)c5)c(Cl)c4)c3c2)o1 [Lapatinib] (partner 2 µM), which relative viability (HCC-44; first compound 0.08 µM) is on record?
Answer: 1.02

Question: What about the relative viability (HCC-44; first compound 0.253 µM) of the same molecule?
Answer: 1.01

Question: And the relative viability (HCC-44; first compound 0.8 µM)?
Answer: 1.08

Question: And the relative viability (HCC-44; first compound 2.53 µM)?
Answer: 1.04

Question: And the relative viability (Calu-6; first compound 0.08 µM)?
Answer: 1.02

Question: And the relative viability (Calu-6; first compound 0.253 µM)?
Answer: 1.06

Question: And the relative viability (Calu-6; first compound 0.8 µM)?
Answer: 1.16

Question: And the relative viability (Calu-6; first compound 2.53 µM)?
Answer: 1.14

Question: And the relative viability (NCI-H1755; first compound 0.08 µM)?
Answer: 1.06

Question: And the relative viability (NCI-H1755; first compound 0.253 µM)?
Answer: 0.988

Question: And the relative viability (NCI-H1755; first compound 0.8 µM)?
Answer: 1.08

Question: And the relative viability (NCI-H1755; first compound 2.53 µM)?
Answer: 1.05

Question: And the relative viability (NCI-H1395; first compound 0.08 µM)?
Answer: 1.08

Question: And the relative viability (NCI-H1395; first compound 0.253 µM)?
Answer: 0.883

Question: And the relative viability (NCI-H1395; first compound 0.8 µM)?
Answer: 0.952

Question: What about the relative viability (NCI-H1395; first compound 2.53 µM) of the same molecule?
Answer: 1.08

Question: And the relative viability (EBC-1; first compound 0.08 µM)?
Answer: 0.235

Question: And the relative viability (EBC-1; first compound 0.253 µM)?
Answer: 0.222

Question: What about the relative viability (EBC-1; first compound 0.8 µM) of the same molecule?
Answer: 0.222

Question: What about the relative viability (EBC-1; first compound 2.53 µM) of the same molecule?
Answer: 0.2

Question: And the relative viability (NCI-H1299; first compound 0.08 µM)?
Answer: 0.989

Question: What about the relative viability (NCI-H1299; first compound 0.253 µM) of the same molecule?
Answer: 0.906

Question: And the relative viability (NCI-H1299; first compound 0.8 µM)?
Answer: 0.959

Question: What about the relative viability (NCI-H1299; first compound 2.53 µM) of the same molecule?
Answer: 0.928

Question: What about the relative viability (UMC-11; first compound 0.08 µM) of the same molecule?
Answer: 0.919

Question: What about the relative viability (UMC-11; first compound 0.253 µM) of the same molecule?
Answer: 0.86

Question: And the relative viability (UMC-11; first compound 0.8 µM)?
Answer: 0.967

Question: And the relative viability (UMC-11; first compound 2.53 µM)?
Answer: 1.06

Question: What about the relative viability (A549; first compound 0.08 µM) of the same molecule?
Answer: 1.03

Question: What about the relative viability (A549; first compound 0.253 µM) of the same molecule?
Answer: 1.01

Question: And the relative viability (A549; first compound 0.8 µM)?
Answer: 1.05

Question: And the relative viability (A549; first compound 2.53 µM)?
Answer: 1.12

Question: And the relative viability (IA-LM; first compound 0.08 µM)?
Answer: 0.68

Question: What about the relative viability (IA-LM; first compound 0.253 µM) of the same molecule?
Answer: 0.808

Question: What about the relative viability (IA-LM; first compound 0.8 µM) of the same molecule?
Answer: 0.9

Question: And the relative viability (IA-LM; first compound 2.53 µM)?
Answer: 0.847

Question: What about the relative viability (HCC-15; first compound 0.08 µM) of the same molecule?
Answer: 0.954

Question: And the relative viability (HCC-15; first compound 0.253 µM)?
Answer: 0.858

Question: What about the relative viability (HCC-15; first compound 0.8 µM) of the same molecule?
Answer: 0.951

Question: And the relative viability (HCC-15; first compound 2.53 µM)?
Answer: 0.828

Question: What about the relative viability (NCI-H1703; first compound 0.08 µM) of the same molecule?
Answer: 0.968

Question: What about the relative viability (NCI-H1703; first compound 0.253 µM) of the same molecule?
Answer: 0.894

Question: What about the relative viability (NCI-H1703; first compound 0.8 µM) of the same molecule?
Answer: 1.24

Question: What about the relative viability (NCI-H1703; first compound 2.53 µM) of the same molecule?
Answer: 0.511

Question: And the relative viability (EKVX; first compound 0.08 µM)?
Answer: 0.184

Question: And the relative viability (EKVX; first compound 0.253 µM)?
Answer: 0.216

Question: What about the relative viability (EKVX; first compound 0.8 µM) of the same molecule?
Answer: 0.194

Question: What about the relative viability (EKVX; first compound 2.53 µM) of the same molecule?
Answer: 0.198

From the supplement of paper PMC10307832
